In brackets after ≈: the same amount, converted by molar mass. One block for each compound: values may come before it.
Key:
[1] = molecular target: T1, Tyrosine-protein kinase BTK (Homo sapiens, UniProt Q06187); assay: Inhibition of Btk (unknown origin) assessed as inhibition of phosphorylation of FAM-labelled peptide substrate
[2] = molecular target: Proto-oncogene tyrosine-protein kinase Src (Homo sapiens, UniProt P12931); assay: Inhibition of Src (unknown origin)
[3] = Toxicity in dog assessed as adverse effect; set-up: species or system Canis lupus familiaris; details: in vivo
Rattus norvegicus [4] = assay: Antiarthritic activity against collagen-induced arthritis Lewis rat model assessed as change in paw volume at 3 mg/kg, po once daily for 22 days; type: functional; details: time 22 day
Salmonella typhimurium [5] = assay: Genotoxicity in Salmonella typhimurium TA1537 by Ames test; type: toxicity, organism-based; details: salmonella enterica subsp. enterica serovar typhimurium
PDE3 = assay: Inhibition of PDE3 (unknown origin) assessed as remaining activity; details: human
[6] = Oral bioavailability in Beagle dog; type: ADME, organism-based, Canis lupus familiaris; details: in vivo
[7] = Half life in Sprague-Dawley rat; type: ADME; details: in vivo
Salmonella typhimurium [8] = assay: Genotoxicity in Salmonella typhimurium TA98 by Ames test; type: toxicity, organism-based; details: salmonella enterica subsp. enterica serovar typhimurium
[9] = Metabolic stability in mouse liver hepatocytes assessed as extraction ratio
[10] = In vivo stability in Sprague-Dawley rat liver assessed as extraction ratio at 70 ml/kg
Rattus norvegicus [11] = assay: Antiarthritic activity against collagen-induced arthritis Lewis rat model assessed as inhibition of paw swelling treated po once daily for 21 days; type: functional, organism-based; details: dose 0.3-3 mg/kg, time 21.0 day
[12] = Half life in Beagle dog; type: ADME, Canis lupus familiaris; details: in vivo
PDE5 = PDE5 (Homo sapiens, UniProt O76074); assay: Inhibition of PDE5 (unknown origin) assessed as remaining activity
[13] = Metabolic stability in monkey liver hepatocytes assessed as extraction ratio; details: rhesus monkey
[14] = molecular target: Tyrosine-protein kinase Lck (Homo sapiens, UniProt P06239); assay: Inhibition of Lck (unknown origin)
Chain of Tyrosine-protein kinase Lck (P06239 whole entry): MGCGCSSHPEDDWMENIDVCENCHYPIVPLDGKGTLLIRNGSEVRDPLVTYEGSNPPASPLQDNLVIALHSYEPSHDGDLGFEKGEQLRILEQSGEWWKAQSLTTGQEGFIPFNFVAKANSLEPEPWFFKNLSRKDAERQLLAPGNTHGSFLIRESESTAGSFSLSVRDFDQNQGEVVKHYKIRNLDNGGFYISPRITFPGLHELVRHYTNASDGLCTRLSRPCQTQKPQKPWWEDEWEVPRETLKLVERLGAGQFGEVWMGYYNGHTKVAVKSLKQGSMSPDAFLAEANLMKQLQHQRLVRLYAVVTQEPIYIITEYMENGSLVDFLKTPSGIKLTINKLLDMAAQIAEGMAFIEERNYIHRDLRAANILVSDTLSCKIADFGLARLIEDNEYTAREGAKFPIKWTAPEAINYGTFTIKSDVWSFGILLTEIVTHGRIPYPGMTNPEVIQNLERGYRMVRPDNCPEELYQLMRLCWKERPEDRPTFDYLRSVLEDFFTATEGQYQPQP

[15] = Plasma protein binding in Sprague-Dawley rat measured by rapid equilibrium dialysis method; type: ADME, cell-free; details: read-out: PPB (converted)
Rattus norvegicus [16] = assay: Antiarthritic activity against collagen-induced arthritis po dosed Lewis rat model assessed as inhibition of paw swelling measured after 22 days; type: organism-based; details: 528 h, time 22 day
MDR1 [17] = assay: Apparent permeability from apical to basolateral side in LLC-PK1-MDR1 cells; type: ADME, cell-based, Sus scrofa; details: pig
[18] = Metabolic stability in Beagle dog liver hepatocytes assessed as extraction ratio
[19] = Oral bioavailability in Sprague-Dawley rat; type: ADME, organism-based; details: in vivo
[20] = Thermodynamic solubility of the compound at pH 6.8 in GCDC; type: physicochemical; details: read-out: Therm_solubility
[21] = Metabolic stability in Sprague-Dawley rat liver hepatocytes assessed as extraction ratio
[22] = AUC in collagen-induced arthritis rat model at 3 mg/kg, po […] after 22 days; type: ADME, organism-based; set-up: dose 3 mg/kg, time 22 day; details: in vivo, 528 h
[23] = GSH reactivity in pH 7.4 PBS buffer assessed as intrinsic reactivity by measuring percent remaining measured after 2 hrs; type: physicochemical; details: read-out: Stability
[24] = Thermodynamic solubility of the compound at pH 1.2 in JP1 fluid; type: physicochemical; details: read-out: Therm_solubility
hERG (KCNH2) = hERG (KCNH2) (Homo sapiens, UniProt Q12809); assay: Inhibition of hERG at 13 uM
Chain of hERG (KCNH2) (Q12809 whole entry): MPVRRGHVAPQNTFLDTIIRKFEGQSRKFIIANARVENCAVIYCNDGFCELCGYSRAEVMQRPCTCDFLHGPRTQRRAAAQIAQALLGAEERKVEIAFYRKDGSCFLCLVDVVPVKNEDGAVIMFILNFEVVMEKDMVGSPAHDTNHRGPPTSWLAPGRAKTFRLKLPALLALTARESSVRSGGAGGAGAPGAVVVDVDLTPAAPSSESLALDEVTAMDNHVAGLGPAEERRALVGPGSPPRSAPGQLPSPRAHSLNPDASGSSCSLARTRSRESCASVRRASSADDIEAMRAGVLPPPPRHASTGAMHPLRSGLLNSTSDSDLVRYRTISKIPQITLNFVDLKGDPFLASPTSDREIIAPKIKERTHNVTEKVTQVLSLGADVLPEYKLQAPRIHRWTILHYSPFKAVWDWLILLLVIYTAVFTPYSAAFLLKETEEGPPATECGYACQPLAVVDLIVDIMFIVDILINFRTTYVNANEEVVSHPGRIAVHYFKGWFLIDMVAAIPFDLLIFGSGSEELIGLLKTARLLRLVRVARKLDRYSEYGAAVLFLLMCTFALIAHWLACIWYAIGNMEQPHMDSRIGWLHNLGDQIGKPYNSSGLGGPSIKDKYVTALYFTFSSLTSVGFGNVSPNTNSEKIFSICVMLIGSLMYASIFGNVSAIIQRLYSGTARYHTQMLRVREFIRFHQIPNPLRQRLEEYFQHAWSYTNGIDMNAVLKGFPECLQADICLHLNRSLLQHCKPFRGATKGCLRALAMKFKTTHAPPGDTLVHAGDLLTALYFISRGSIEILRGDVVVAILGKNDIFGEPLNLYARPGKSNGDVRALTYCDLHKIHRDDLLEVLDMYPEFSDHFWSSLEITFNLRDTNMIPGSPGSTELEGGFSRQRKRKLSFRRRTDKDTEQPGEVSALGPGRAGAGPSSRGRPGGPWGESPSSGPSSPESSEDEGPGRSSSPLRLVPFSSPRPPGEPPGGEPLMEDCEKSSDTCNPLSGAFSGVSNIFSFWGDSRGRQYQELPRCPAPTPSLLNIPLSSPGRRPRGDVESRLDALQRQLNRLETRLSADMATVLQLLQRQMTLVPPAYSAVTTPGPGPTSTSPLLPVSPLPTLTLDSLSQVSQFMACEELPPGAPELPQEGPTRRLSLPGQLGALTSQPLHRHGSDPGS

[25] = Toxicity in rat assessed as adverse effect; details: in vivo
Salmonella typhimurium [26] = assay: Genotoxicity in Salmonella typhimurium WP2 uvrA in presence of S9 fraction by Ames test; type: toxicity, organism-based; details: salmonella enterica subsp. enterica serovar typhimurium
[27] = molecular target: T1, Tyrosine-protein kinase BTK; assay: Inhibition of human Btk in human Raji cells assessed as PhosY223 measured after 30 mins by cellular HTRF assay; type: cell-based
MDR1 [28] = assay: Efflux ratio of apparent permeability in LLC-PK1-MDR1 cells; details: pig
[29] = Toxicity in human peripheral blood lymphocytes in absence of S9 fraction by micronucleus test; type: cell-based; details: lymphocyte
[30] = Clearance in Beagle dog at 1 mg/kg, iv; type: ADME, organism-based, Canis lupus familiaris; details: in vivo
Rattus norvegicus [31] = assay: Antiarthritic activity against collagen-induced arthritis Lewis rat model assessed as change in paw volume at 0.3 mg/kg, po once daily for 22 days; type: functional; details: time 22 day
PDE10A2 = PDE10A2 (Homo sapiens, UniProt Q9Y233); assay: Inhibition of PDE10A2 (unknown origin) assessed as remaining activity
Chain of PDE10A2 (Q9Y233 whole entry): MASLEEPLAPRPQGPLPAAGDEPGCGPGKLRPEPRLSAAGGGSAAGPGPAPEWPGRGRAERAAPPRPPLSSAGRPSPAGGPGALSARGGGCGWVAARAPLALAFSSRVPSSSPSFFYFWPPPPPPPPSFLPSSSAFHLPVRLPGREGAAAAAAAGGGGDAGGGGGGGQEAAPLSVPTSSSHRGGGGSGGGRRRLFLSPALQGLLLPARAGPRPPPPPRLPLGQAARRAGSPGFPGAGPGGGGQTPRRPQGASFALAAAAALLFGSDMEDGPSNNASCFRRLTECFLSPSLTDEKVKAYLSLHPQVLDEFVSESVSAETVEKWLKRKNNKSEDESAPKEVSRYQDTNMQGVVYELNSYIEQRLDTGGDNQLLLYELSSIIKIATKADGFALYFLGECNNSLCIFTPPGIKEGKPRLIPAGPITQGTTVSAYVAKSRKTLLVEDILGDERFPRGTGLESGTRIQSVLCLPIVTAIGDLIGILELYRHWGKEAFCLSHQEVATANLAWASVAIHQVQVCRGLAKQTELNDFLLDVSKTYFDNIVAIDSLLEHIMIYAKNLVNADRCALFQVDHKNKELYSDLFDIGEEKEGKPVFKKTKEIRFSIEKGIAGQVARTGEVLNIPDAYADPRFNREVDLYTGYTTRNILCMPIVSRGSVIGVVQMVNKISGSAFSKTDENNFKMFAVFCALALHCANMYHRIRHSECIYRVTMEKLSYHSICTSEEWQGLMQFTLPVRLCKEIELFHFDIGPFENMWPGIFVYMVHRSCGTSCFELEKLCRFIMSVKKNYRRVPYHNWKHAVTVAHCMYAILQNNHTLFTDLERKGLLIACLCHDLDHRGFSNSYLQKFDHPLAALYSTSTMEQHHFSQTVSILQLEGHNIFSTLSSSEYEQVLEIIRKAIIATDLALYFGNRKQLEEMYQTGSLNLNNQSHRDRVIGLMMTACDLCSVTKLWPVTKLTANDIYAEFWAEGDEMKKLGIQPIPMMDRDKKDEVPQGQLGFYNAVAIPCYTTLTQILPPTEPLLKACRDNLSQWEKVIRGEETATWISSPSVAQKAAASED

[32] = Plasma protein binding in human measured by rapid equilibrium dialysis method; type: ADME, cell-free; details: read-out: PPB (converted)
Rattus norvegicus [33] = assay: Antiarthritic activity against collagen-induced arthritis Lewis rat model assessed as change in paw volume at 0.1 mg/kg, po once daily for 22 days; type: functional; details: time 22 day
Salmonella typhimurium [34] = assay: Genotoxicity in Salmonella typhimurium TA1535 by Ames test; type: toxicity, organism-based; details: salmonella enterica subsp. enterica serovar typhimurium
Salmonella typhimurium [35] = assay: Genotoxicity in Salmonella typhimurium WP2 uvrA in absence of S9 fraction by Ames test; type: toxicity, organism-based; details: salmonella enterica subsp. enterica serovar typhimurium
[36] = Toxicity in human peripheral blood lymphocytes in presence of S9 fraction by micronucleus test; type: subcellular, Lymphocyte
[37] = In vivo stability in Beagle dog liver assessed as extraction ratio at 35 ml/kg
[38] = Stability in PBS buffer measured after 2 hrs; type: physicochemical
[39] = Metabolic stability in human liver hepatocytes assessed as extraction ratio; details: mouse
[40] = Thermodynamic solubility of the compound at pH 6.8 in JP2 fluid; type: physicochemical; details: read-out: Therm_solubility
[41] = In vivo inhibition of pBTK in collagen-induced arthritis rat model at 3-30 mg/kg after 12 hrs; type: functional
Salmonella typhimurium [42] = assay: Genotoxicity in Salmonella typhimurium […] by Ames test; type: toxicity, organism-based; details: salmonella enterica subsp. enterica serovar typhimurium
Rattus norvegicus [43] = assay: Antiarthritic activity against collagen-induced arthritis Lewis rat model assessed as change in paw volume at 1 mg/kg, po once daily for 22 days; type: functional; details: time 22 day

T1 sequence (Q06187 whole entry): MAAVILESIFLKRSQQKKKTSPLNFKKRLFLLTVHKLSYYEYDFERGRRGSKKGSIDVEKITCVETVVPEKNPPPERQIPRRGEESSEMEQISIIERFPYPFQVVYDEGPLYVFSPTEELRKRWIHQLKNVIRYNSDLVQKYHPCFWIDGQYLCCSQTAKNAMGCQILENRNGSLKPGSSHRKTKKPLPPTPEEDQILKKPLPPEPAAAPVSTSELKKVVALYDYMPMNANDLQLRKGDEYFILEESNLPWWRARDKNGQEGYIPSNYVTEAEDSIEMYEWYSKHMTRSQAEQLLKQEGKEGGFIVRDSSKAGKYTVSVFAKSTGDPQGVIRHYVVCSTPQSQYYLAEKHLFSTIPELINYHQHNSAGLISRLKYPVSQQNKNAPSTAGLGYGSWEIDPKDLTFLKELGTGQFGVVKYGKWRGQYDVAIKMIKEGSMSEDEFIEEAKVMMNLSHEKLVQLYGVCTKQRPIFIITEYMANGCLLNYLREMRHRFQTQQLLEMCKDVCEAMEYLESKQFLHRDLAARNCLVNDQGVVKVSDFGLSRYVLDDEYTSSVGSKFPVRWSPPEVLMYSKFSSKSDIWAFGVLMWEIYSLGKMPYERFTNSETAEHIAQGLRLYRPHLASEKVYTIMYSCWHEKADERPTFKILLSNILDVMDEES
Chain of Proto-oncogene tyrosine-protein kinase Src (P12931 2-536 limits assumed): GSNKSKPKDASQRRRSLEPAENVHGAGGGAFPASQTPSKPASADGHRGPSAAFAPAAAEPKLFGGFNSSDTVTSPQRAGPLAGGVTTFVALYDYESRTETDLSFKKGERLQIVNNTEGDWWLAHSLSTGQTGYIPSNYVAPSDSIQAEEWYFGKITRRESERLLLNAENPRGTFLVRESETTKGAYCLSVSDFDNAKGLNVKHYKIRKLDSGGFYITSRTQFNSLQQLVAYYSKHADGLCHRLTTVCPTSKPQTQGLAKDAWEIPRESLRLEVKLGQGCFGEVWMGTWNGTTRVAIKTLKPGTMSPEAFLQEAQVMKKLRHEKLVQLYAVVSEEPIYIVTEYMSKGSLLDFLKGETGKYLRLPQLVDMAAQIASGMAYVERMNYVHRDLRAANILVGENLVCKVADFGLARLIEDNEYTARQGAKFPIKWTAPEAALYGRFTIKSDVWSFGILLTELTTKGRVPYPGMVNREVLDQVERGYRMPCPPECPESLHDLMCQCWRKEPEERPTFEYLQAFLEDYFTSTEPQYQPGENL

Compound: Cc1cc(OC(C)C)nc(-c2n[nH]c(=O)[nH]2)c1
- IC50 [1]: 251 nM

Compound: C=CC(=O)N1CC[C@H](Oc2nc(-c3n[nH]c(=O)[nH]3)cc3ccccc23)C1 [TAK-020]
- IC50 [2]: 631 nM
- Activity [3]: Non-Toxic
- Activity (Rattus norvegicus [4]): 240%
- Activity (Salmonella typhimurium [5]): Non-Toxic
- Activity (PDE3): 96%
- bioavailability [6]: 6.5%
- half-life [7]: 0.7 h
- Activity (Salmonella typhimurium [8]): Non-Toxic
- hepatic extraction ratio [9]: 0.62
- hepatic extraction ratio [10]: > 0.9
- inhibition (Rattus norvegicus [11]): Dose-Dependent Effect
- half-life [12]: 3 h
- IC50 [1]: < 2 nM
- Activity (PDE5): 67%
- hepatic extraction ratio [13]: 0.37
- IC50 [14]: 1000 nM
- fraction unbound [15]: 0.098
- ED50 (Rattus norvegicus [16]): 0.17 mg/kg
- Papp A→B (MDR1 [17]): 1.89 ×10⁻⁶ cm/s
- hepatic extraction ratio [18]: 0.48
- F [19]: 6%
- solubility thermodynamic [20]: 6.8 µg/mL (≈ 19.4 µM)
- hepatic extraction ratio [21]: 0.31
- AUC [22]: 4.2 ng·h/mL
- remaining at 2 h [23]: 75%
- solubility thermodynamic [24]: < 0.1 µg/mL
- inhibition at 13 µM (hERG (KCNH2)): 18%
- Activity [25]: Non-Toxic
- Activity (Salmonella typhimurium [26]): Non-Toxic
- EC50 [27]: 1.26 nM
- efflux ratio (MDR1 [28]): 10.8
- Activity [29]: Non-Toxic
- clearance [30]: 28.5 mL/min/kg
- Activity (Rattus norvegicus [31]): 75%
- Activity (PDE10A2): 59%
- fraction unbound [32]: 0.113
- Activity (Rattus norvegicus [33]): 21%
- Activity (Salmonella typhimurium [34]): Non-Toxic
- Activity (Salmonella typhimurium [35]): Non-Toxic
- Activity [36]: Non-Toxic
- hepatic extraction ratio [37]: 0.81
- Stability [38]: Stable
- hepatic extraction ratio [39]: 0.21
- solubility thermodynamic [40]: < 1.1 µg/mL
- inhibition in vivo at 30 mg/kg [41]: > 50%
- Activity (Salmonella typhimurium [42]): Non-Toxic
- Activity (Rattus norvegicus [43]): 173%

Compound: O=c1[nH]nc(-c2cccnc2)[nH]1
- IC50 [1]: 126000 nM

Compound: COc1ncccc1-c1n[nH]c(=O)[nH]1
- IC50 [1]: 100000 nM

Compound: COc1nc2ccccc2cc1-c1n[nH]c(=O)[nH]1
- IC50 [1]: 3160 nM

Compound: CCOc1cccc(-c2n[nH]c(=O)[nH]2)n1
- IC50 [1]: 6310 nM

Compound: Oc1n[nH]c(-c2ccccc2)n1
- IC50 [1]: 501000 nM

Compound: CC(=O)N1CC[C@H](Oc2nc(-c3n[nH]c(=O)[nH]3)cc3ccccc23)C1
- IC50 [1]: 31.6 nM

Compound: O=c1[nH]nc(-c2nc3ccccc3[nH]2)[nH]1
- IC50 [1]: 10000 nM

Compound: CC(C)COc1cccc(-c2n[nH]c(=O)[nH]2)n1
- IC50 [1]: 1580 nM

Compound: C=CC(=O)N1CC[C@@H](Oc2nc(-c3n[nH]c(=O)[nH]3)cc3ccccc23)C1
- IC50 [1]: 31.6 nM
- EC50 [27]: 501 nM

Compound: CCOc1ncccc1-c1n[nH]c(=O)[nH]1
- IC50 [1]: > 100000 nM

Compound: NC(=O)c1nnc2ccccc2c1N
- IC50 [1]: 3160 nM

Compound: O=c1[nH]nc(-c2ccccn2)[nH]1
- IC50 [1]: 316000 nM

Compound: COc1cccc(-c2n[nH]c(=O)[nH]2)n1
- IC50 [1]: 31600 nM

Results, then the compound that gave them:

- IC50 [1]: 5010 nM
Compound: O=c1[nH]nc(-c2cc3ccccc3cn2)[nH]1

- IC50 [1]: 20 nM
- EC50 [27]: 158 nM
Compound: CC(C)Nc1nc(-c2n[nH]c(=O)[nH]2)cc2ccccc12

- IC50 [1]: 25.1 nM
- EC50 [27]: 398 nM
Compound: CCCOc1nc(-c2n[nH]c(=O)[nH]2)cc2ccccc12

- IC50 [1]: 50.1 nM
Compound: CCOc1nc(-c2n[nH]c(=O)[nH]2)cc2ccccc12

- IC50 [1]: 10 nM
- EC50 [27]: 100 nM
Compound: CC(C)Oc1nc(-c2n[nH]c(=O)[nH]2)cc2ccccc12

- IC50 [1]: 100 nM
- EC50 [27]: 794 nM
Compound: CCNc1nc(-c2n[nH]c(=O)[nH]2)cc2ccccc12

- IC50 [1]: 398 nM
Compound: COc1nc(-c2n[nH]c(=O)[nH]2)cc2ccccc12

Source: ChEMBL document CHEMBL5030537 (J Med Chem, 2021)
